{"source": "patent US20130280348A1", "about": "“Carbon dioxide and saline nasal delivery methods and treatments” (Glynn Tech, Inc., priority 2012, published 2013)", "origin": "cited, not measured here", "key": {"[1]": {"system": "seasonal allergic rhinitis (SAR)", "conditions": "intranasal"}, "[2]": {"system": "nasal allergen challenge (grass or ragweed allergen) in subjects with SAR"}}}
{"compound": "O=C=O", "note": "[CO(2), carbon dioxide]", "values": [{"measurement": "symptoms of seasonal allergic rhinitis (SAR)", "setting": "[1]", "result": "reduce symptoms"}, {"measurement": "histamine levels in ipsilateral nasal secretions", "setting": "[2]; after pretreatment with CO(2), increased significantly with sham treatment", "result": "did not increase"}, {"measurement": "ipsilateral secretion weights", "setting": "[2]; compared with no treatment", "result": "numerically reduced"}, {"measurement": "sneezes", "setting": "[2]; compared with no treatment, 12 subjects with SAR, 20-second CO(2) exposure 30 minutes before challenge, p=0.05", "result": "significant reduction"}, {"measurement": "bilateral runny nose symptoms", "setting": "[2]; compared with no treatment, p=0.01", "result": "significant reduction"}, {"measurement": "contralateral secretion weights (reflex secretory response to allergen, primary outcome)", "setting": "[2]; compared with no treatment, p=0.04", "result": "significant reduction"}, {"measurement": "sensation reported by subjects during exposure", "setting": "[2]; during 20-second exposure to CO(2)", "result": "transient burning sensation"}, {"measurement": "acute response to allergen challenge", "setting": "[2]; treatment with nasal CO(2)", "result": "partial reduction"}, {"measurement": "reflex responses", "setting": "[2]; treatment with nasal CO(2)", "result": "reduced"}]}
